Literature values in US20040229855A1, “Antiglucocorticoids for the treatment of postpartum psychosis” (Corcept Therapeutics, Inc., priority 2003, published 2004).

Key:
glucocorticoid receptor = biological target: T1, glucocorticoid receptor (Homo sapiens, UniProt P04150); settings: cited from earlier work
T1 sequence (P04150 1-777): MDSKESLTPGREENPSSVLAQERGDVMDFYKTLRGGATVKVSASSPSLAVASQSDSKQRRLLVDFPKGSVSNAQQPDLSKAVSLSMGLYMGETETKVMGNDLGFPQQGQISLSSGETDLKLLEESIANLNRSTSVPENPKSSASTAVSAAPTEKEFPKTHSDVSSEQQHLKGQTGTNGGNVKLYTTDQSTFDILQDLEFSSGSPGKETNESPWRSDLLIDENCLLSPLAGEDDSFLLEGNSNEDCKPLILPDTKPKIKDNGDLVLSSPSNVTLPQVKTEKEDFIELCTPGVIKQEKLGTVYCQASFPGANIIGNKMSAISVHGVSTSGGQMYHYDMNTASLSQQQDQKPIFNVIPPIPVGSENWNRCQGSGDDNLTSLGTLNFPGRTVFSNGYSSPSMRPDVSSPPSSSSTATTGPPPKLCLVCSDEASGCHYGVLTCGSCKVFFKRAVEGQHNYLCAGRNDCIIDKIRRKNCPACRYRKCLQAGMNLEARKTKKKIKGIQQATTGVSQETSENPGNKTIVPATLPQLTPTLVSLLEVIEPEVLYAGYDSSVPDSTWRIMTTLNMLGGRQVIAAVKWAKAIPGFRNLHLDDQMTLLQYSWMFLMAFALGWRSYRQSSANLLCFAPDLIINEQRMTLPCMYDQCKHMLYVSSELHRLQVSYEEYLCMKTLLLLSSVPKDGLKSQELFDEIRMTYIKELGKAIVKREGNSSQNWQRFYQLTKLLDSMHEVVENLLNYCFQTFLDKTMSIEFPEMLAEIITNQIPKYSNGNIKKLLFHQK

[1] = in one study (Kawai 1989); cited from earlier work
progesterone receptor = biological target: T2, progesterone receptor (Homo sapiens, UniProt P06401); settings: cited from earlier work
T2 sequence (P06401 1-933): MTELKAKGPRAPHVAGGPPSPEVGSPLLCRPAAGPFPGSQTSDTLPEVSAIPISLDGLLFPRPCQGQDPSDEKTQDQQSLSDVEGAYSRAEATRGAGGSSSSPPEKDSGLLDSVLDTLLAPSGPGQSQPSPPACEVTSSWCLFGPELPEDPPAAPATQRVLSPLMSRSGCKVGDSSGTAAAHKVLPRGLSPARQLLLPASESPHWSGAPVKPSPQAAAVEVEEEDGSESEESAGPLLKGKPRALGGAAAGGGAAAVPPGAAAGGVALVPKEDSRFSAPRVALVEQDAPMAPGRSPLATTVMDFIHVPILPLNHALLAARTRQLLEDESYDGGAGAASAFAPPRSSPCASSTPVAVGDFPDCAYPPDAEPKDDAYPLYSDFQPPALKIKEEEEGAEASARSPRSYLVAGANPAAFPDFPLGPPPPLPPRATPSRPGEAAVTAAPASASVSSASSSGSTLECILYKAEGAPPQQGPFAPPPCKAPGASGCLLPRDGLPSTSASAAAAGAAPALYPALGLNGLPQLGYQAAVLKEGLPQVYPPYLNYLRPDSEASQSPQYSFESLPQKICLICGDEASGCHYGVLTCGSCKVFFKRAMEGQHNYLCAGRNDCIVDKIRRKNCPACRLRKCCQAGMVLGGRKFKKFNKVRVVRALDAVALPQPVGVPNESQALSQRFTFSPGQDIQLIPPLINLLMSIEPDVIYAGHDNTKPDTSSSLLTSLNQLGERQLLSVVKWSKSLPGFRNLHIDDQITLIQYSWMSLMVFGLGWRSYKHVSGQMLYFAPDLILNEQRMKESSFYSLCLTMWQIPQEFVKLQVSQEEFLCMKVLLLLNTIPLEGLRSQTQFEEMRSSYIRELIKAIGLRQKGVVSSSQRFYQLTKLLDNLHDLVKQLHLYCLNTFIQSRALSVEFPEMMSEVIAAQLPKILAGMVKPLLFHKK

SMILES: CC#C[C@]1(O)CC[C@H]2[C@@H]3CCC4=CC(=O)CCC4=C3[C@@H](c3ccc(OCCN(C)C)cc3)C[C@@]21C [RU009, 11β-(4-dimethylaminoethoxyphenyl)-17α-propynyl-17β-hydroxy-4,9 estradien-3-one]
- glucocorticoid receptor antagonist activity (glucocorticoid receptor): glucocorticoid receptor antagonist effects

SMILES: CC#C[C@]1(O)CC[C@H]2[C@@H]3CCC4=CC(=O)CCC4=C3[C@@H](c3ccc(N(C)C)cc3)C[C@@]21C [mifepristone, 17-β-hydroxy-11-β-(4-dimethyl-aminophenyl)-17-α-(1-propynyl)-estra-4,9-dien-3-one]
- daily dose excreted in the urine [1]: less than 0.5%
- glucocorticoid receptor antagonist activity (glucocorticoid receptor): powerful antagonist
- progesterone receptor antagonist activity (progesterone receptor): powerful antagonist
